The text below walks through data of patent publication US8324457B2, “Soybean event 3560.4.3.5 and compositions and methods for the identification and/or detection thereof” (Pioneer Hi-Bred International, Inc., priority 2006, dated 2012).

One data set has as its system 3560.4.3.5 soybean. Put plainly: ALS inhibitor herbicide tolerance field trials, crop response rating. On the set-up: species or system Glycine max. Particulars: in vivo. The source says:
ALS inhibitor herbicide tolerance of the gm-hra gene was compared to sulfonylurea tolerant soybeans (STS®) by growing T4 plants of event 3560.4.3.5 and a STS® cultivar. […] Spray treatments were applied at the V3 growth stage and consisted of one of the following: an unsprayed control, 8.8 g ai ha^−1 rimsulfuron (N-[[(4,6-dimethoxy-2-pyrimidinyl)amino]carbonyl]-3-(ethylsulfonyl)-2-pyridinesulfonamide), 8.8 g ai ha^−1 tribenuron methyl (methyl 2-[[[[(4-methoxy-6-methyl-1,3,5-triazin-2-yl)methylamino]carbonyl]amino]sulfonyl]benzoate), or 30.0 g ai ha^−1 chlorimuron ethyl (ethyl 2-[[[[(4-chloro-6-methoxypyrimidin-2-yl)amino]carbonyl]amino]sulfonyl]benzoate)+9.67 g ai ha^−1 thifensulfuron methyl. […] Plots were evaluated for crop response at 7 DAT and 14 DAT, and assigned a visual response score from 0% to 100% response. Crop response data were analyzed using the mixed model ANOVA procedure of SAS.
ALS inhibitor herbicide tolerance trials were completed at two separate locations. Plants from the T5 generation of event 3560.4.3.5 and a STS® cultivar were grown in a RCB design in a split plot arrangement with three replications of paired 2.4 m rows (76.2 cm row spacing). […] Crop response data were analyzed using the mixed model ANOVA procedure of SAS. […]

Data set [1] deals with transgenic event 3560.4.3.5 soybean. As to the kind of experiment: Greenhouse herbicide tolerance of T0 and T1 plants, visual rating 10 days after spray. Format: in vivo, Glycine max. The settings on record: T1 tolerant plants, scale to 9 = no response. The source says:
Selected events were advanced at the T1 generation for herbicide tolerance confirmation in greenhouses. Plants were sprayed at the V3 growth stage with either 1.68 kg ae ha^−1 glyphosate, 60 g ai ha^−1 thifensulfuron methyl(methyl 3-[[[[(4-methoxy-6-methyl-1,3,5-triazin-2-yl)amino]carbonyl]amino]sulfonyl]-2-thiophenecarboxylate), or a sequential […] […] […] Since the T1 events were segregating, only the non-susceptible plants were scored, and an average rating of tolerant plants within each event was calculated.
T0 3560.4.3.5 soybean were evaluated for glyphosate tolerance.
The 3560.4.3.5 event was advanced to the T1 generation in a greenhouse to confirm herbicide tolerance. The 3560.4.3.5 event had tolerance after application of 1.68 kg ae ha^−1 glyphosate, after application of 60.0 g ai ha^−1 thifensulfuron methyl, and after a sequential application of 70 g ai ha^−1 thifensulfuronmethyl at V3, […]

Data set [2] has as its system seedlings that lacked the event. As to the kind of experiment: Chlorsulfuron herbicide seedling test on germination paper. Format: in vivo, Glycine max. Particulars: germination paper saturated with 20 ml/l of a 66.7 mg/l chlorsulfuron stock, pH 7.5; observed 10 days after initial treatment.
Data set [3] concerns seedlings that possessed the 3560.4.3.5 event. The data set is described as above. Format: in vivo, Glycine max. The settings on record: germination paper saturated with 20 ml/l of a 66.7 mg/l chlorsulfuron stock, pH 7.5; observed 10 days after initial treatment.

As for `COC(=O)c1ccccc1S(=O)(=O)NC(=O)Nc1nc(C)nc(OC)n1` [Metsulfuron methyl, methyl 2-[[[[(4-methoxy-6-methyl-1,3,5-triazin-2-yl)amino]carbonyl]amino]sulfonyl]benzoate], the “crop response of 3560.4.3.5 soybean compared to STS, in words” value in the data set on 3560.4.3.5 soybean is “significantly lower crop response compared to STS®”.

On to `CCS(=O)(=O)c1cccnc1S(=O)(=O)NC(=O)Nc1nc(OC)cc(OC)n1` [Rimsulfuron, N-[[(4,6-dimethoxy-2-pyrimidinyl)amino]carbonyl]-3-(ethylsulfonyl)-2-pyridinesulfonamide], for which the “crop response of 3560.4.3.5 soybean compared to STS, in words” value with 3560.4.3.5 soybean is “significantly lower crop response compared to STS®”.

For `COC(=O)c1sccc1S(=O)(=O)NC(=O)Nc1nc(C)nc(OC)n1` [Thifensulfuron methyl, methyl 3-[[[[(4-methoxy-6-methyl-1,3,5-triazin-2-yl)amino]carbonyl]amino]sulfonyl]-2-thiophenecarboxylate], the “average visual response rating” value in data set [1] (thifensulfuron methyl 60.0 g ai ha-1 + NIS + AMS at V3, 10 days after application) came to 7.0. The “average visual response rating, first score of sequential application” value in data set [1] (thifensulfuron methyl 70 g ai ha-1 + NIS + AMS at V3, 10 days after the V3 application) is 8.0.

With `COc1nc(C)nc(NC(=O)NS(=O)(=O)c2ccccc2Cl)n1` [chlorsulfuron, 2-chloro-N-[[(4-methoxy-6-methyl-1,3,5-triazin-2-yl)amino]-carbonyl]benzenesulfonamide], the “seedling response in chlorsulfuron solution” value in data set [2] was “created hooked unifoliolate leaves that did not expand and develop any further”; in data set [3], “germinated and grew normally”.
